ChEMBL document CHEMBL3044877, “Synthesis and crystal structure of chalcones as well as on cytotoxicity and antibacterial properties” (Med Chem Res, 2012)
Values after ≈ are worked out from the molar mass of the structure shown.

Tests used:
HT-29 = test: Cytotoxicity against Homo sapiens (human) HT-29 cells after 72 hr by MTT assay; format: functional, cell-based
SGC-7901 = test: Cytotoxicity against Homo sapiens (human) SGC7901 cells after 72 hr by MTT assay; format: functional, cell-based
Enterococcus faecium = test: Antibacterial activity against multidrug-resistant Enterococcus faecium 609205; format: functional
Enterococcus faecalis = test: Antibacterial activity against multidrug-resistant Enterococcus faecalis 609230; format: functional
[1] = test system: Staphylococcus epidermidis; test: Antibacterial activity against multidrug-resistant Staphylococcus epidermidis 619083; format: functional
[2] = test system: Staphylococcus epidermidis; test: Antibacterial activity against multidrug-resistant Staphylococcus epidermidis 620206; format: functional
Staphylococcus aureus [3] = test: Antibacterial activity against multidrug-resistant Staphylococcus aureus 701219; format: functional
Staphylococcus aureus [4] = test: Antibacterial activity against multidrug-resistant Staphylococcus aureus 701230; format: functional
Staphylococcus aureus [5] = test: Antibacterial activity against multidrug-resistant Staphylococcus aureus ATCC 25923; format: functional
Pseudomonas aeruginosa [6] = test: Antibacterial activity against multidrug-resistant Pseudomonas aeruginosa 710218; format: functional
Pseudomonas aeruginosa [7] = test: Antibacterial activity against multidrug-resistant Pseudomonas aeruginosa 630266; format: functional
Acinetobacter baumannii [8] = test: Antibacterial activity against multidrug-resistant Acinetobacter baumannii B-8 303211; format: functional
Acinetobacter baumannii [9] = test: Antibacterial activity against multidrug-resistant Acinetobacter baumannii B-5 302234; format: functional
Klebsiella pneumoniae [10] = test: Antibacterial activity against multidrug-resistant Klebsiella pneumoniae 626238; format: functional
Klebsiella pneumoniae [11] = test: Antibacterial activity against multidrug-resistant Klebsiella pneumoniae 626511; format: functional
Escherichia coli [12] = test: Antibacterial activity against multidrug-resistant Escherichia coli 629247; format: functional
Escherichia coli [13] = test: Antibacterial activity against multidrug-resistant Escherichia coli 629119; format: functional
Staphylococcus aureus [14] = test: Antibacterial activity against Staphylococcus aureus after 24 hr; format: functional
[15] = Homo sapiens, HT-29, 72 h, read-out: IC50
[16] = Homo sapiens, SGC-7901, 72 h, read-out: IC50

COc1ccc(C(=O)/C=C/c2ccccc2C(F)(F)F)cc1
IC50 (HT-29; [15]): 36.4 µM

COc1ccc(C(=O)/C=C/c2ccc(Cl)cc2Cl)cc1
IC50 (SGC-7901; [16]): 12.6 µM | IC50 (HT-29; [15]): 18.9 µM

COc1ccc(C(=O)/C=C/c2ccc(F)cc2F)cc1
IC50 (SGC-7901; [16]): 48.4 µM | IC50 (HT-29; [15]): 11.1 µM

COc1ccc(/C=C/C(=O)c2ccccc2O)c(OC)c1
IC50 (SGC-7901; sgc-7901): Not Active | IC50 (HT-29; ht-29): Not Active

COc1ccc(/C=C/C(=O)c2ccccc2)c(OC)c1
IC50 (HT-29; [15]): 131 µM

O=C(/C=C/c1ccccc1C(F)(F)F)c1ccccc1
IC50 (SGC-7901; [16]): 40.3 µM | IC50 (HT-29; [15]): 42.9 µM

COc1ccc(C(=O)/C=C/c2ccccc2Cl)cc1OC
IC50 (SGC-7901; [16]): 24.7 µM | IC50 (HT-29; [15]): 15.5 µM

COc1ccc(C(=O)/C=C/c2cccc(OC)c2OC)cc1
IC50 (SGC-7901; [16]): 13.1 µM | IC50 (HT-29; [15]): 41.7 µM

COc1ccc(C(=O)/C=C/c2ccccc2Br)cc1OC
IC50 (SGC-7901; [16]): 21.4 µM | IC50 (HT-29; [15]): 14 µM

COc1ccc(/C=C/C(=O)c2cc(F)cc(F)c2)c(OC)c1
IC50 (SGC-7901; [16]): 55.5 µM | IC50 (HT-29; ht-29): Not Active

COc1ccc(C(=O)/C=C/c2ccccc2OC)cc1
IC50 (SGC-7901; sgc-7901): Not Active

COc1ccccc1/C=C/C(=O)c1cc(F)cc(F)c1
IC50 (SGC-7901; [16]): 75.4 µM | IC50 (HT-29; [15]): 53.2 µM

Nc1ccc(C(=O)/C=C/c2ccccc2C(F)(F)F)cc1
IC50 (SGC-7901; [16]): 15.7 µM

COc1ccc(C(=O)/C=C/c2ccccc2Br)cc1
IC50 (SGC-7901; [16]): 20 µM | IC50 (HT-29; [15]): 25.7 µM

COc1ccc(C(=O)/C=C/c2ccc(Cl)cc2Cl)cc1OC
IC50 (SGC-7901; [16]): 60.5 µM | IC50 (HT-29; [15]): 18.7 µM

COc1ccc(C(=O)/C=C/c2cccc(OC)c2OC)cc1OC
IC50 (SGC-7901; [16]): 70.7 µM | IC50 (HT-29; [15]): 35.9 µM

Nc1ccc(C(=O)/C=C/c2ccc(Cl)cc2Cl)cc1
IC50 (SGC-7901; [16]): 87.7 µM | IC50 (HT-29; [15]): 40 µM

O=C(/C=C/c1ccc(Cl)cc1Cl)c1ccccc1O
IC50 (HT-29; [15]): 42.4 µM

CN(C)c1ccc(/C=C/C(=O)c2cccc(N)c2)cc1
IC50 (HT-29; ht-29): Not Active

CN(C)c1ccc(/C=C/C(=O)c2cc(F)cc(F)c2)cc1
IC50 (SGC-7901; sgc-7901): Not Active | IC50 (HT-29; ht-29): Not Active

Nc1ccc(C(=O)/C=C/c2ccccc2Cl)cc1
IC50 (SGC-7901; [16]): 11.2 µM | IC50 (HT-29; [15]): 26.2 µM

COc1ccc(/C=C/C(=O)c2ccc(N)cc2)c(Cl)c1
MIC (Enterococcus faecium): > 1000 µg/mL | MIC (Enterococcus faecalis): 537 µg/mL (≈ 1870 µM) | MIC [1]: > 1000 µg/mL | MIC [2]: > 1000 µg/mL | MIC (Staphylococcus aureus [3]): > 1000 µg/mL | MIC (Staphylococcus aureus [4]): 537 µg/mL (≈ 1870 µM) | MIC (Staphylococcus aureus [5]): 537 µg/mL (≈ 1870 µM) | IC50 (SGC-7901; [16]): 20.2 µM | IC50 (HT-29; [15]): 55.7 µM

COc1ccc(/C=C/C(=O)c2cccc(N)c2)c(Cl)c1
IC50 (SGC-7901; [16]): 53.8 µM | IC50 (HT-29; [15]): 42.8 µM

COc1ccc(C(=O)/C=C/c2ccc(OC)cc2Cl)cc1
IC50 (SGC-7901; [16]): 19.2 µM | IC50 (HT-29; [15]): 49.1 µM

COc1ccc(/C=C/C(=O)c2ccccc2O)c(Cl)c1
IC50 (SGC-7901; [16]): 62.1 µM | IC50 (HT-29; [15]): 59.5 µM

COc1ccc(/C=C/C(=O)c2cc(F)cc(F)c2)cc1
IC50 (SGC-7901; sgc-7901): Not Active | IC50 (HT-29; [15]): 101 µM

Nc1ccc(C(=O)/C=C/c2ccccc2F)cc1
IC50 (SGC-7901; [16]): 7.44 µM | IC50 (HT-29; [15]): 47.8 µM

COc1ccc(C(=O)/C=C/c2ccc(N(C)C)cc2)cc1OC
IC50 (SGC-7901; sgc-7901): Not Active | IC50 (HT-29; [15]): 49.8 µM

COc1ccc(C(=O)/C=C/c2ccc(O)cc2)cc1
MIC (Pseudomonas aeruginosa [6]): > 1000 µg/mL | MIC (Pseudomonas aeruginosa [7]): > 1000 µg/mL | MIC (Acinetobacter baumannii [8]): 548 µg/mL (≈ 2160 µM) | MIC (Acinetobacter baumannii [9]): 548 µg/mL (≈ 2160 µM) | MIC (Klebsiella pneumoniae [10]): > 1000 µg/mL | MIC (Klebsiella pneumoniae [11]): > 1000 µg/mL | MIC (Escherichia coli [12]): 548 µg/mL (≈ 2160 µM) | MIC (Escherichia coli [13]): 548 µg/mL (≈ 2160 µM) | MIC (Enterococcus faecium): > 1000 µg/mL | MIC (Enterococcus faecalis): 81 µg/mL (≈ 319 µM) | MIC [1]: 20 µg/mL (≈ 78.7 µM) | MIC [2]: 81 µg/mL (≈ 319 µM) | MIC (Staphylococcus aureus [3]): 81 µg/mL (≈ 319 µM) | MIC (Staphylococcus aureus [4]): 81 µg/mL (≈ 319 µM) | MIC (Staphylococcus aureus [5]): 40 µg/mL (≈ 157 µM) | IC50 (SGC-7901; [16]): 14.7 µM | IC50 (HT-29; [15]): 18.6 µM

COc1ccc(/C=C/C(=O)c2ccc(OC)c(OC)c2)cc1
IC50 (SGC-7901; [16]): 102 µM | IC50 (HT-29; [15]): 54.6 µM

COc1ccc(/C=C/C(=O)c2ccc(N)cc2)c(OC)c1
IC50 (SGC-7901; sgc-7901): Not Active | IC50 (HT-29; ht-29): Not Active

COc1ccc(/C=C/C(=O)c2ccc(OC)c(OC)c2)c(OC)c1
IC50 (SGC-7901; sgc-7901): Not Active | IC50 (HT-29; [15]): 65.5 µM

COc1ccc(C(=O)/C=C/c2ccccc2F)cc1
IC50 (SGC-7901; [16]): 21.2 µM | IC50 (HT-29; [15]): 18.9 µM

O=C(/C=C/c1ccc(O)cc1)c1ccccc1 [4-HYDROXYCHALCONE]
MIC (Staphylococcus aureus [14]): 125 µg/mL (≈ 557 µM) | MIC (Pseudomonas aeruginosa [6]): 158 µg/mL (≈ 705 µM) | MIC (Pseudomonas aeruginosa [7]): > 1000 µg/mL | MIC (Acinetobacter baumannii [8]): 158 µg/mL (≈ 705 µM) | MIC (Acinetobacter baumannii [9]): 158 µg/mL (≈ 705 µM) | MIC (Klebsiella pneumoniae [10]): > 1000 µg/mL | MIC (Klebsiella pneumoniae [11]): > 1000 µg/mL | MIC (Escherichia coli [12]): 158 µg/mL (≈ 705 µM) | MIC (Escherichia coli [13]): 158 µg/mL (≈ 705 µM) | MIC (Enterococcus faecium): 315 µg/mL (≈ 1400 µM) | MIC (Enterococcus faecalis): 158 µg/mL (≈ 705 µM) | MIC [1]: 158 µg/mL (≈ 705 µM) | MIC [2]: 158 µg/mL (≈ 705 µM) | MIC (Staphylococcus aureus [3]): 158 µg/mL (≈ 705 µM) | MIC (Staphylococcus aureus [4]): 158 µg/mL (≈ 705 µM) | MIC (Staphylococcus aureus [5]): 158 µg/mL (≈ 705 µM) | IC50 (SGC-7901; [16]): 13.7 µM | IC50 (HT-29; [15]): 24.6 µM

O=c1[nH]cc(F)c(=O)[nH]1 [FLUOROURACIL]
IC50 (SGC-7901; Homo sapiens, SGC-7901, 72 h): 29.2 µM | IC50 (HT-29; [15]): 9.72 µM

C[C@H]1COc2c(N3CCN(C)CC3)c(F)cc3c(=O)c(C(=O)O)cn1c23.C[C@H]1COc2c(N3CCN(C)CC3)c(F)cc3c(=O)c(C(=O)O)cn1c23.O [LEVOFLOXACIN]
MIC (Pseudomonas aeruginosa [6]): > 1000 µg/mL | MIC (Pseudomonas aeruginosa [7]): 325 µg/mL | MIC (Acinetobacter baumannii [8]): 12.5 µg/mL | MIC (Acinetobacter baumannii [9]): > 1000 µg/mL | MIC (Klebsiella pneumoniae [10]): > 1000 µg/mL | MIC (Klebsiella pneumoniae [11]): 125 µg/mL | MIC (Escherichia coli [12]): 25 µg/mL | MIC (Escherichia coli [13]): > 1000 µg/mL | MIC (Enterococcus faecium): > 1000 µg/mL | MIC (Enterococcus faecalis): > 1000 µg/mL | MIC [1]: 125 µg/mL | MIC [2]: > 1000 µg/mL | MIC (Staphylococcus aureus [3]): 100 µg/mL | MIC (Staphylococcus aureus [4]): 12.5 µg/mL | MIC (Staphylococcus aureus [5]): 12.5 µg/mL
